From patent US20070207138A1, “S/O Type Pharmaceutical Preparation and Method for Producing the Same” (ASPION CO., LTD., priority 2004, published 2007)
Where “and” joins values, the source holds several entries; their conditions need not be identical. Identical values can stand only once. Entries after “also recorded” stand apart in the source; their conditions may differ.

Assays:
gastric mucosa = experiment: Gastric mucosa stimulus test
Experimental: (§1) Gastric mucosa stimulus test for the S/O type complex suspension obtained in Production example 1 was carried out. Specifically, according to the method disclosed by Tsurumi et al. (Folia Pharmacol. Japan, 69, pp.319-334 (1973)), five male Wistar rats having an average body weight of 140 g were fasted for 18 hours in advance, and were administered so that the dose amount of DFNa was 50 mg/kg body weight by means of an intrastomach catheter for rat. After 3.5 hours, the rats were sacrificed and dissected, and the condition of the gastric mucosa was observed. Also blood collected after 3.5 hours was centrifuged to obtain a plasma sample, and DFNa concentration in the plasma was determined by HPLC.

[1] = Plasma DFNa concentration in the gastric mucosa stimulus test; type: in vivo, male Wistar rats; conditions: DFNa 50 mg/kg body weight by intrastomach catheter, blood after 3.5 hours
Experimental: as §1

Blood concentration test = type: in vivo; conditions: beagle dog fasted overnight, oral, DFNa 6 mg/kg body weight

abnormality in gastric mucosa (gastric mucosa; rat, DFNa 50 mg/kg body weight): clear abnormality is observed
Plasma DFNa concentration, Average ([1]; group average, rat): 6.21 ± 2.03
Plasma DFNa concentration ([1]; individual rat): 3.99 and 7.98 and 6.64
Area under medicine concentration curve (Blood concentration test): 62800 ng·h/mL
Maximum blood concentration (Blood concentration test): 26.4 µg/mL
Maximum blood concentration reach time (Blood concentration test): 1 h
half-life (Blood concentration test; serum): 58.8 min
Compound: O=C(O)Cc1ccccc1Nc1c(Cl)cccc1Cl [DFNa solution, diclofenac sodium]
Condition of gastric mucosa (gastric mucosa; individual rat, DFNa 50 mg/kg body weight by intrastomach catheter, observed after 3.5 hours): Dotted bleeding; also recorded: Gastric ulcer
